The source of these data is article PMC9161616, “A first-in-human phase 1/2 study of FGF401 and combination of FGF401 with spartalizumab in patients with hepatocellular carcinoma or biomarker-selected solid tumors” (Journal of Experimental & Clinical Cancer Research : CR, 2022).

One series deals with patients with HCC. On the set-up: method as in PMID 31575541. Particulars: cited from earlier work.
Series [1] relates to patients with HCC and intrahepatic cholangiocarcinoma. More on the design: method as in doi:10.1200/JCO.2019.37.15_suppl.4095, doi:10.1200/JCO.2021.39.15_suppl.4090. To be noted: cited from earlier work.
Series [2] can be described thus: Pharmacokinetics of spartalizumab in combination arm. To be noted: for AUC0-504h / AUClast / Cmax / Tmax: Cycle 1 day 1; for AUC0-504h / AUClast / Cmax: geometric mean (CV%); for Tmax: median [min, max]. Type of series: in vivo, human. The protocol:
(§1) Pharmacokinetic endpoints included plasma concentrations and PK parameters of FGF401 and spartalizumab. Pharmacokinetic parameters were determined with noncompartmental method(s) using Phoenix WinNonlin version 6.4 or above (Pharsight Corporation, Mountain View, Califormia, USA). Immunogenicity of spartalizumab was assessed through presence and/or concentration of anti-drug (spartalizumab) antibodies (ADA). Food effect on FGF401 exposure was evaluated through plasma concentration of FGF401 and relevant PK parameters when dosing under fed condition. Safety of the food effect was assessed through incidence and severity of AEs and serious AEs (SAEs), including changes in laboratory values, vital signs, and ECGs when dosing under fed condition.
The PK analyses and summary statistics were based on pharmacokinetic analysis set. Individual as well as mean concentration-time profiles were constructed using concentration data for spartalizumab and FGF401. Descriptive statistics for PK parameters included mean, standard deviation, coefficient of variation (CV%) mean, geometric mean, median, minimum, and maximum, with only the latter 3 for time to reach maximum concentration (Tmax) and additional 90% CI for accumulation ratio (Racc). Zero concentrations were not included in the geometric mean calculations. Missing concentrations or PK parameter values were not imputed.

Series [3] in a line: Immunogenicity of spartalizumab (anti-drug antibodies). Type of series: in vivo, human. As to the method:
as §1

Where [4] appears, read: HCC patients with > 2 prior lines of therapy, qd schedule.
Where [5] appears, read: spartalizumab 300 mg with FGF401 80 mg, n=6.
The mark [6] stands for this setting: spartalizumab 300 mg with FGF401 120 mg, n=6.

What is called Cmax is the highest concentration seen after dosing.

Where two headings read alike, the source gives them in different places.

For `C=CC(=O)N[C@H]1CCOC[C@H]1Nc1ncc2cc(-c3c(Cl)c(OC)cc(OC)c3Cl)ccc2n1` [BLU-554, fisogatinib], in the series on patients with HCC (FGF19-negative patients), the ORR was 0%. Also, in the series with patients with HCC (FGF19-positive patients, 95% CI: 3.7-not reached), the “median duration of response” value is listed as 5.3 months. Also, in the series with patients with HCC (FGF19-positive patients), the ORR is 17%. For the same compound, the “Treatment discontinuation due to AE” value with patients with HCC was 12%. Also, the “Grade ≥ 3 TRAEs” value with patients with HCC (most common transaminase elevation) is given as 43%. Further, in the series on patients with HCC (qd), the “treatment related AE: diarrhea” value is listed as 74%, the “treatment related AE: nausea” value is recorded as 42% and the “treatment related AE: vomiting” value is 35%.
With `C=CC(=O)Nc1cc(N2CCN(CC)CC2)ccc1Nc1cc(N(C)C(=O)Nc2c(Cl)c(OC)cc(OC)c2Cl)ncn1` [H3B-6527], the “drug discontinuation due to AEs” value in series [1] (HCC and intrahepatic cholangiocarcinoma, qd dosing) is on record as 8.3%. In addition, the “Grade 3 TEAE” value in series [1] (HCC and intrahepatic cholangiocarcinoma) is 12.5%. In series [1] (setting [4]), the OS is 10.6 months and the PFS was 4.1 months. In addition, the ORR in series [1] (all PR, HCC patients with > 2 prior lines of therapy, qd schedule) is recorded as 16.7%. Also, in series [1] (responders + durable SD > 17 weeks, HCC, qd schedule), the clinical benefit rate is given as 45.8%.
As for “spartalizumab: humanized immunoglobulin G4κ monoclonal antibody that binds PD-1 and blocks its interaction with PD-L1/PD-L2”, in series [2] (spartalizumab 300 mg with FGF401 80 mg, n=3), the AUC0-504h is listed as 760 (1.9) day*µg/mL. Besides, in series [2] (setting [5]), the AUClast is on record as 795 (34.5) day*µg/mL, the highest concentration (Cmax) amounted to 74.7 µg/mL and the Tmax was 1.58 [1.5-161] h. In series [2] (setting [6]), the AUC0-504h is listed as 967 (13.9) day*µg/mL, the AUClast was 978 (15.8) day*µg/mL, the Cmax is 87.7 µg/mL and the Tmax is 1.5 [1.43-1.5] h. Further, the “spartalizumab exposures in combination versus similar studies with 300 mg q3w” value in series [2] (compared with refs 25, 30) is on record as “might be comparable”. The “geo-mean AUClast” value in series [2] (spartalizumab in combination with 80 mg FGF401) came to 795 µg·days/mL. The “geo-mean AUClast” value in series [2] (spartalizumab in combination with 120 mg FGF401) is 978 µg·days/mL. For the same compound, in series [3] (One of 12 patients, C2D1 and C3D1 predose), the “patients positive for treatment-induced ADA for spartalizumab” value turned out to be 8.3%. Moreover, in series [3] (one ADA-positive patient), the ADA titers entry is listed as “low to moderate” and the “influence of ADA on PK profiles” value was “did not appear to influence the PK profiles”.
